# Test results taken from patent US10533992B2, “Method for screening for sunlight protection functional material and method for evaluating sunlight protection effect” (AMOREPACIFIC CORPORATION, priority 2015, dated 2020).
# How the values were obtained:
# [1] = tested on: HBD-1, HBD-2, HBD-3, LL-37, psoriasin, dermcidin, and RNase 7; test: AMP expression (Q-RT-PCR) in keratinocytes treated with Poly I:C and the scavengers PTIO or NAC, with or without blue/violet light; assay type: cell-based, human
# Experimental: (§1) First, according to a commercially secured and recommended method, the human epidermal neonatal keratinocytes used in the present invention were purchased from Lonza, Inc. (Walkersville, Md., US), subcultured, and then cultured in a CO2 incubator under the conditions of 37° C. and 5% CO2. The culture medium was prepared according to the guideline provided by Lonza, Inc. KGM-2 Bullet kit: BPE (Bovine pituitary extract) 2 ml, hEGF (human epidermal growth factor) 0.5 ml, insulin 0.5 ml, hydrocortisone 0.5 ml, transferrin 0.5 ml, epinephrine 0.5 ml, and gentamycin sulfate+amphotericin-B(GA-1000) 0.5 ml were added to 500 ml of KBM-2 (Clonetics CC-3103) medium.
# (§2) Subsequently, blue/violet light of a wavelength from 400 to 500 nm was radiated to the medium in which human epidermal neonatal keratinocytes is cultured (10 J/cm^2). […]
# (§3) Then, the separated RNA was once again purified by using an RNA kit (QIAGEN RNeasy kt, QIAGEN, Valencia, Calif.), and then the quality of the RNA was examined by using Agilent 2100 BioAnalyzer (Agilent Technologies, Santa Clara, Calif., USA). The Superscript Reverse Transcriptase (RT) kit (Invitrogen, Carlsbad, Calif.) was used to synthesize cDNA from the RNA, and the cDNA was quantitatively analyzed through a real time-reverse transcription polymerase chain reaction (Q-RT-PCR). […]
# [2] = tested on: HBD-1, HBD-2, HBD-3, LL-37, psoriasin, dermcidin, and RNase7; test: AMP expression (Q-RT-PCR) in keratinocytes treated with Poly I:C and flagellin, with or without blue/violet light; assay type: cell-based; conditions: human epidermal neonatal keratinocytes; Poly I:C and flagellin treatment; FIGS. 3a to 3g
# Experimental: as §1, §2, §3
Compound,"expression level of the AMPs on blue/violet light radiation ([1]; Poly I:C treated keratinocytes, blue/violet light 10 J/cm^2, scavenger treated group)","expression level of HBD-1, HBD-2, HBD-3, LL-37, psoriasin, dermcidin, and RNase7 [2]","expression level of HBD-1, HBD-2, HBD-3, LL-37, psoriasin, dermcidin, and RNase7 ([1]; human epidermal neonatal keratinocytes, Poly I:C treatment, FIGS. 4a to 4g)"
"CC1(C)N([O])C(c2ccc(C(=O)[O-])cc2)=[N+]([O-])C1(C)C.[K+] [PTIO, 2-(4-Carboxyphenyl)-4,4,5,5-tetramethylimidazoline-1-oxyl-3-oxide potassium salt]",not reduced,,
Poly I:C,,increased,increased
flagellin,,increased,
